# Measured values reported in patent US9079866B2, “Flap modulators” (JANSSEN PHARMACEUTICA NV, priority 2013, dated 2015).
# Structures can show the parent of a compound that is named as a salt.
# Molecular target: human FLAP (Homo sapiens (Human), UniProt P20292)
# Assay: FLAP binding assay (HTRF format)
# Conditions: HTRF format
# Method: The ability of the compounds of the present invention to treat a FLAP-mediated disease and/or disorder, or associated symptoms or complications thereof, was determined using the following procedures. Binding assay data represent the average value obtained from two different assay plates, with samples run in duplicate on each plate. Human whole blood assay data represent a single replicate on an assay plate using whole blood from at least one healthy donor.
# Data are expressed as a HTRF ratio.
# [1] = human FLAP wild type, average of two plates, duplicates
# human FLAP, sequence (P20292 whole entry): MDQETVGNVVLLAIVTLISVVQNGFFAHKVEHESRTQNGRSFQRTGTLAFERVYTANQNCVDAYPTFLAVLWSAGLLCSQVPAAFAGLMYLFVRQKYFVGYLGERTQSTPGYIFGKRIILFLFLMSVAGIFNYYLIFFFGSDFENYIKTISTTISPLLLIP
Compound,Ki (wild type FLAP) [nM],Ki [1] [nM]
"Nc1ncc(-c2ccc(-c3ccccc3S(=O)(=O)N3CCOCC3)cc2F)cn1 [Example 303, 5-[3-Fluoro-2′-(morpholin-4-ylsulfonyl)biphenyl-4-yl]pyrimidin-2-amine trifluoroacetic acid salt]",,612
"C[C@H]1COCCN1C(=O)c1ccccc1-c1ccc(-c2cnc(N)nc2)c(F)c1 [Example 778, 5-(3-Fluoro-2′-{[(3S)-3-methylmorpholin-4-yl]carbonyl}biphenyl-4-yl)pyrimidin-2-amine]",> 10000,
"Nc1cc(S(=O)(=O)c2ccccc2-c2ccc(-c3cnc(N)nc3)c(F)c2)ncn1 [Example 721, 5-{2′-[(6-Aminopyrimidin-4-yl)sulfonyl]-3-fluorobiphenyl-4-yl}pyrimidin-2-amine]",> 10000,
"CNC(=O)c1ccccc1-c1ccc(-c2cnc(N)cn2)c(F)c1 [Example 510, 4′-(5-Aminopyrazin-2-yl)-3′-fluoro-N-methylbiphenyl-2-carboxamide]",1940,
"Nc1ncc(-c2ccc(-c3ccccc3S(=O)(=O)c3ccnc(N)n3)cc2F)cn1 [Example 724, 4-{[4′-(2-Aminopyrimidin-5-yl)-3′-fluorobiphenyl-2-yl]sulfonyl}pyrimidin-2-amine]",> 10000,
"Nc1ncc(-c2ccc(-c3ccccc3Oc3ccnc(N)n3)cn2)cn1 [Example 567, 4-{2-[6-(2-Aminopyrimidin-5-yl)pyridin-3-yl]phenoxy}pyrimidin-2-amine]",1140,
"Nc1cnc(-c2ccc(-c3ccccc3C(=O)N3CC[C@@H](O)C3)cc2F)cn1 [Example 769, (3R)-1-{[4′-(5-Aminopyrazin-2-yl)-3′-fluorobiphenyl-2-yl]carbonyl}pyrrolidin-3-ol]",1540,
"CCc1ccccc1-c1ccc(-c2cnc(N)cn2)c(F)c1 [Example 480, 5-(2′-Ethyl-3-fluorobiphenyl-4-yl)pyrazin-2-amine]",354,
"CC(C)(C)NS(=O)(=O)c1ccccc1-c1ccc(-c2cnc(N)nc2C#N)c(F)c1 [Example 703, 4′-(2-Amino-4-cyanopyrimidin-5-yl)-N-tert-butyl-3′-fluorobiphenyl-2-sulfonamide]",> 10000,
"Nc1cnc(-c2ccc(-c3ccccc3S(N)(=O)=O)cc2O)cn1 [Example 592, 4′-(5-Aminopyrazin-2-yl)-3′-hydroxybiphenyl-2-sulfonamide]",> 10000,
"CN(C)S(=O)(=O)c1ccccc1-c1ccc(-c2cnc(N)cn2)cc1F [Example 575, 4′-(5-Aminopyrazin-2-yl)-2′-fluoro-N,N-dimethylbiphenyl-2-sulfonamide]",750,
"Nc1cnc(-c2ccc(-c3ccccc3F)cc2F)cn1 [Example 468, 5-(2′,3-Difluorobiphenyl-4-yl)pyrazin-2-amine]",620,
"Nc1ccc(-c2ccc(-c3ccccc3S(N)(=O)=O)cc2F)cn1 [Example 662, 4′-(6-Aminopyridin-3-yl)-3′-fluoro-[1,1′-biphenyl]-2-sulfonamide trifluoroacetate]",~1220,
"Nc1ncc(-c2ccc(-c3ccccc3S(=O)(=O)CC(=O)N3CCOCC3)cc2F)cn1 [Example 601, 5-{3-Fluoro-2′-[(2-morpholin-4-yl-2-oxoethyl)sulfonyl]biphenyl-4-yl}pyrimidin-2-amine]",> 10000,
"CC(C)(C)S(=O)(=O)c1ccccc1-c1ccc(-c2cnc(N)cn2)c(F)c1 [Example 194, 5-[2′-(tert-Butylsulfonyl)-3-fluorobiphenyl-4-yl]pyrazin-2-amine]",,733
"CCOC(=O)c1cccc2nc(-c3ccc(-c4ccccc4S(=O)(=O)NC(C)(C)C)cc3F)cn12 [Example 587, Ethyl 2-[2′-(tert-butylsulfamoyl)-3-fluorobiphenyl-4-yl]imidazo[1,2-a]pyridine-5-carboxylate]",> 10000,
"Nc1ncc(-c2ccc(-c3ccccc3C(=O)N3CCC[C@@H](O)C3)cc2F)cn1 [Example 764, (3R)-1-{[4′-(2-Aminopyrimidin-5-yl)-3′-fluorobiphenyl-2-yl]carbonyl}piperidin-3-ol]",> 10000,
"NC(=O)CS(=O)(=O)c1ccccc1-c1ccc(-c2cnc(N)nc2)c(F)c1 [Example 599, 2-{[4′-(2-Aminopyrimidin-5-yl)-3′-fluorobiphenyl-2-yl]sulfonyl}acetamide]",> 10000,
"Nc1cnc(-c2ccc(-c3ccccc3N3CCCC3=O)cc2F)cn1 [Example 860, 1-[4′-(5-Aminopyrazin-2-yl)-3′-fluorobiphenyl-2-yl]pyrrolidin-2-one]",~1480,

# Results, then the molecule that gave them:
Ki (wild type FLAP) [nM],Ki [1] [nM],Compound
463,,"COCCCS(=O)(=O)c1ncccc1-c1ccc(-c2cnc(N)nc2)c(F)c1 [Example 817, 5-(2-Fluoro-4-(2-((3-methoxypropyl)sulfonyl)pyridine-3-yl)phenyl)pyrimidin-2-amine hydrogen chloride salt]"
> 10000,,"Nc1ncc(-c2ccc(-c3ccccc3S(=O)(=O)c3ccncn3)cc2F)cn1 [Example 720, 5-[3-Fluoro-2′-(pyrimidin-4-ylsulfonyl)biphenyl-4-yl]pyrimidin-2-amine]"
~2490,,"C[C@@H]1COCCN1C(=O)c1ccccc1-c1ccc(-c2cnc(N)nc2)c(F)c1 [Example 779, 5-(3-Fluoro-2′-{[(3R)-3-methylmorpholin-4-yl]carbonyl}biphenyl-4-yl)pyrimidin-2-amine]"
,2500,"Nc1ncc(-c2ccc(-c3ccccc3S(N)(=O)=O)cc2F)cn1 [Example 302, 4′-(2-Aminopyrimidin-5-yl)-3′-fluorobiphenyl-2-sulfonamide trifluoroacetic acid salt]"
~1250,,"Nc1cnc(-c2ccc(-c3cccnc3N3CCCC3)cc2F)cn1 [Example 859, 5-[2-Fluoro-4-(2-pyrrolidin-1-ylpyridin-3-yl)phenyl]pyrazin-2-amine]"
> 10000,,"CC(C)(C)NS(=O)(=O)c1ccccc1-c1ccc(-c2cn3cc(C(F)(F)F)ccc3n2)c(F)c1 [Example 586, N-tert-Butyl-3′-fluoro-4′-[6-(trifluoromethyl)imidazo[1,2-a]pyridin-2-yl]biphenyl-2-sulfonamide]"
,658,"CCS(=O)(=O)c1ccccc1-c1ccc(-c2cnc(N)cn2)c(F)c1 [Example 191, 5-[2′-(Ethylsulfonyl)-3-fluorobiphenyl-4-yl]pyrazin-2-amine]"
,> 10000,"CC(C)(C)S(=O)(=O)c1ccccc1-c1ccc(-c2cnc(N)nc2)c(F)c1 [Example 293, 5-[2′-(tert-Butylsulfonyl)-3-fluorobiphenyl-4-yl]pyrimidin-2-amine trifluoroacetic acid salt]"
836,,"Nc1ncc(-c2ccc(-c3ccccc3OCCO)cc2F)cn1 [Example 629, 2-{[4′-(2-Aminopyrimidin-5-yl)-3′-fluorobiphenyl-2-yl]oxy}ethanol]"
,6,"Nc1cnc(-c2ccc(-c3ccccc3CSc3cccnn3)cc2F)cn1 [Example 239, 5-(3-Fluoro-2′-((pyridazin-3-ylthio)methyl)-[1,1′-biphenyl]-4-yl)pyrazin-2-amine hydrochloride]"
> 10000,,"Nc1ncc(-c2ccc(-c3ccccc3C(=O)N3CCS(=O)(=O)CC3)cc2F)cn1 [Example 516, 5-{2′-[(1,1-Dioxidothiomorpholin-4-yl)carbonyl]-3-fluorobiphenyl-4-yl}pyrimidin-2-amine]"
,856,"C[C@H](CO)NS(=O)(=O)Cc1ccccc1-c1ccc(-c2cnc(N)cn2)c(F)c1 [Example 225, (R)-1-(4′-(5-Aminopyrazin-2-yl)-3′-fluoro-[1,1′-biphenyl]-2-yl)-N-(1-hydroxypropan-2-yl)-methanesulfonamide hydrochloride]"
